# Reference: patent US9290427B2, “Anti-invasive compounds” (Universiteit Gent, priority 2012, dated 2016)
# Columns and labels:
# [1] = test system: MCF-7/6 cells; experiment: MTT test, MCF-7/6; format: cell-based, human; details: for decrease in mitochondrial activity: FIG. 5
# Protocol: (§1) An MTT test provides an indication of cell viability, proliferation and activity through determination of the mitochondrial conversion of 3-(4,5-dimethylthiazol-2-yl)-2,5-diphenyltetrazolium bromide (MTT), a yellow salt, into formazan, a salt that precipitates under the form of blue crystals.
# (§2) In concreto, 5,000 cells are seeded in a cup of a 96 well-plate, treated with the desired amount of the test substance, and incubated for a chosen period of time. Next, 40 μL of a filtered (0.2 μm) 5 mg·mL^−1 solution of MTT in PBS is added to the cup. After 2 h of incubation at 37° C. in the dark, all liquid is removed. The obtained formazan salts are dissolved in 200 μL of DMSO, whereupon optical density is measured at 490 nm.
# The effects of some chalcone-like compounds on the proliferation of MCF-7/6 cells were investigated. A commonly used method to quantify the metabolic activity of cells and thus to a certain degree cell viability—is the MTT assay. This test provides a measure of mitochondrial activity, as it assesses the reduction of 3-(4,5-dimethylthiazol-2-yl)-2,5-diphenyltetrazolium bromide (MTT), a yellow tetrazole, to the purple formazan; this transformation occurs in the mitochondria of living cells (Mosmann T., 1983).
# Thus, the influence of 13 compounds on the mitochondrial activity of MCF-7/6 cells was determined at 3 different concentrations, both after 24 and 48 h of incubation. Assessment of the mitochondrial activity after 192 h of incubation, which would correspond to the duration of the CHI assay, was not possible as the degree of confluence of the cells was too high at that time point.
# The antiproliferative effects of 4-fluoro-3′,4′,5′-trimethoxychalcone on MCF-7/6 cells were further assessed in the MTT assay upon prolonged incubation, as this would provide a higher degree of relevance to the CHI assay, which has an 8-day incubation period. As mentioned above, cell confluence was too high after 192 h; therefore, an incubation time of 144 h was considered a good compromise.
# [2] = test system: 3T3-L1 cells; experiment: SRB test, 3T3-L1; format: cell-based, murine; details: 10 μmol·L−1, 24 h, decreasing trend, not significant
# Protocol: The SRB assay is used to evaluate growth effects on cells, and measures the total protein content. In this test, 5,000 cells are seeded in a cup of a 96-well plate. Upon a 24 h-attachment period, cells are treated with a certain amount of the test molecule (dissolved in DMSO). After a pre-chosen incubation time, cells are fixed with 50 μL of 50% trichloroacetic acid (2° C., 1 h). Afterward, the plate is rinsed five times with tap water, and air dried overnight.
# Next, proteins are stained with 75 μL of a 0.4% solution of SRB in AcOH (30 min). Unbound SRB is subsequently removed by washing with a 1% solution of glacial AcOH, whereupon the plate is air dried. Then, bound SRB is redissolved in 100 μL of a 10 mmol·L^−1 tris(hydroxymethyl)aminomethane (Tris) buffer (pH=10.5), after which optical density is determined at 490 nm with a spectrophotometer.
# (§3) In order to verify whether the antiproliferative effects of compound 49, witnessed in BLM and MCF-7/6 cells at high concentrations, were cell specific, additional SRB and MTT assays on a further five cell lines (HCT8-E11, TR146, FaDu, 3T3-L1 and CT5.3) were conducted (FIG. 8). The results for MCF-7/6 cells were added to facilitate comparison.
# The CT5.3 cell line consists of human myofibroblasts which were isolated from a colon tumor (Van Hoorde et al., 1999). […]
# [3] = test system: HCT8-E11 colon carcinoma cells; experiment: MTT test, HCT8-E11; format: cell-based, human
# Protocol: as §1, §2, §3
# The CT5.3 cell line consists of human myofibroblasts which were isolated from a colon tumor (Van Hoorde et al., 1999). 3T3-L1 cells are murine fibroblasts, originating from embryo's of Swiss mice (Todaro and Green, 1963). HCT8-E11, FaDu and TR146 are human epithelial cancer cell lines. […]
# [4] = elevated concentrations 10-100 μmol·L−1, summary
structure (smiles),measurement,setting,value
"COc1cc(C(=O)/C=C/c2ccc(F)cc2)cc(OC)c1OC [Compound 49, (2E)-3-(4-Fluorophenyl)-1-(3,4,5-trimethoxyphenyl)propenone]",mitochondrial activity relative to solvent control,"[1]; 0.1 μmol·L−1, FIG. 6",increased significantly
same,mitochondrial activity,"[1]; 1 μmol·L−1, 24 h","the same trend, but without significance"
same,decrease in mitochondrial activity,"[1]; 5 μmol·L−1, 24 h",35%
same,decrease in mitochondrial activity,"[1]; 5 μmol·L−1, 48 h",25%
same,reduction in mitochondrial activity,"[1]; 10 μmol·L−1, 24 h",40%
same,mitochondrial activity relative to solvent control,"[1]; 100 and 10 μmol·L−1, FIG. 6 (72 and 144 h), p<0.01",significant reduction
same,reduction in mitochondrial activity,[1]; [4],~50%
same,change in total protein content,[2],−20%
same,reduction in mitochondrial activity,"[3]; 10 μmol·L−1, 24 h",40%
same,reduction in mitochondrial activity,[3]; [4],~50%
